# Legend:
# [1] = molecular target: E. Coli uracil-DNA glycosylase (Escherichia coli, UniProt P12295); test: control assay with UDG (U-containing oligos, without A3s); assay type: biochemical; conditions: specificity control, FIG. 2C
# Text: All newly synthesized compounds can be tested in dose response experiments against recombinant A3A and A3G to identify the sub-library_compounds that have dual-inhibitory activity like the parental molecules.
# These initial experiments can also identify the subset with improved IC50 values. Second, all confirmed inhibitors can be tested against the other five recombinant human A3 proteins (A3BCDEFH) to identify broader-spectrum inhibitors. Third, reactions can be performed with U-containing oligos and UDG (i.e., without A3s) to re-confirm that all new inhibitors have not become general enzyme inhibitors. These assays can be carried out in 96 or 384 well plate formats. HEK-293T cells were transfected with an A3A expression plasmid, and total cell extracts were used in DNA deaminase assays. Non-transfected or A3A-E72A catalytic mutant transfected cell extracts show no activity (28).
# [2] = tested on: A3 DNA deaminase (A3A or A3G); test: fluorescence-based DNA deamination assay, high-throughput screening; assay type: biochemical, human; conditions: 10 μM library compound, inhibitors inhibit the reaction by 50% or more and reproduce in dose response
# Text: MN132, MN137, MN141, and MN152 are a few exemplary molecules identified from high-throughput screening. To screen for inhibitors of A3A or A3G DNA cytosine deaminase activity, a previously described fluorescence-based assay has been modified, optimized, and miniaturized (FIG. 2A) (30). C-to-U by A3A or A3G creates a substrate uracil that is excised by UDG, and the resulting abasic site is attacked by hydroxide to release 6-FAM fluorescence from the TAMRA quench. Recombinant A3A- or A3G-myc-His purified from a HEK-293-based cell line is incubated with uracil DNA glycosylase (UDG), 10 μM library compound (or a DMSO control), and a cytosine-containing, single-stranded DNA substrate attached to a 5′ 6-FAM fluorescent tag and a 3′ TAMRA quench molecule. During a 2 hr incubation period, the A3 protein deaminates 5′-C-to-U and UDG excises the uracil to leave an abasic site. DNA cleavage by NaOH produces a fluorescent signal by releasing the 6-FAM fluorophore from the TAMRA quench. This assay is highly sensitive and reproducible (A3G Z score=0.86 and A3A Z score=0.88 on the University of Minnesota ITDD HTS platform). […]
# Protocols were developed for purification of A3-myc-His proteins from HEK-293 cells. […] High (80-90%) purity is achieved routinely, and all proteins show robust activity in our fluorescence-based C-to-U deaminase assay as shown in FIGS. 4C and 4D.
# A3A = molecular target: T1, A3A (Homo sapiens, UniProt P31941); test: DNA deaminase assay in A3A-expressing HEK-293T cell extracts; assay type: biochemical; conditions: A3A-transfected HEK-293T total cell extracts, compared with recombinant protein, FIG. 5
# T1 construct: expressed in transfected cells; host or cells: HEK-293T
# T1 sequence (P31941 whole entry): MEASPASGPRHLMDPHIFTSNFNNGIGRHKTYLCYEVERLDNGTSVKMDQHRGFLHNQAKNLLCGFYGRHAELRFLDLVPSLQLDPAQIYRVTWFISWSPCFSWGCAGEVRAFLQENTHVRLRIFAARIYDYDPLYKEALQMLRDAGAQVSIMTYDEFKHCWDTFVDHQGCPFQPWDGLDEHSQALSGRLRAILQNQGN
# Method: Like the recombinant protein assay described above, assays with A3-containing cell extracts are done in 96 and 384 well formats and the read-out is relative fluorescence units.
# The deaminase activity in the lysates was determined using a FRET-based assay essentially as described^59. […] FRET occurs between the fluorophores, decreasing FAM fluorescence. If cytidine deaminase activity is present in the lysates, the single cytidine is converted to uridine, which is then excised by uracil DNA glycosylase (NEB). Resulting abasic sites are cleaved by incubating reactions for 2 min at 95° C. Once cleaved, the FAM and TAMRA labels are physically separated, FRET diminishes, and FAM fluorescence increases. Fluorescence is measured on the Lightcycler 480 instrument (Roche).
# primary human monocytes = primary human monocytes nucleofected with a GFP expression vector; assay type: cell-based; conditions: 3 days post-transfection, flow cytometry, versus DMSO (not detectably transfected), FIG. 7B
# Text: Primary human monocytes were purified by negative selection and nucleofected with a GFP expression vector. Since these cells naturally express A3A, transfection with A3A expression plasmids was not necessary. The pool of transfected cells was split into wells containing media plus vehicle control or MN132. A variety of different cell lines (lymphoid, liver, breast, brain, epithelial, and colorectal origins) and distinct primary white blood cell types (T, B, monocyte, neutrophil, etc.) can be used in these experiments to test the central hypothesis that the endogenous A3s constitute a general barrier to foreign DNA and genetic engineering.
# E. Coli uracil-DNA glycosylase, sequence (P12295 whole entry): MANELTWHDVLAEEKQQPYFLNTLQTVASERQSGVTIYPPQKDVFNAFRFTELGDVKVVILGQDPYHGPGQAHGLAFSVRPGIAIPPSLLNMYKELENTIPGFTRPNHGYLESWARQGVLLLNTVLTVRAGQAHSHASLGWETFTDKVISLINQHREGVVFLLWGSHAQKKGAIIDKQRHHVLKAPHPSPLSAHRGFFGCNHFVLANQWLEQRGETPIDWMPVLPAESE
IC50 values in cell extracts (A3A),SMILES,block of UDG [1],inhibition of A3 DNA deaminase activity in vitro [2],percentage of cells expressing GFP (primary human monocytes)
–,O=C(O)C1=CC(=C(c2ccc(O)c(C(=O)O)c2)c2ccc(O)c(C(=O)O)c2)C=CC1=O [ATA],lone exception,–,–
higher,"Cc1ccc(-c2cc(C(=O)Nc3nnc(-c4ccncc4)s3)c3ccccc3n2)o1 [MN132, 2-(5-methylfuran-2-yl)-N-(5-(pyridin-4-yl)-1,3,4-thiadiazol-2-yl)quinoline-4-carboxamide]",–,inhibit A3 DNA deaminase activity in vitro,dose dependent increases
